Among the data in patent US12357631B2 (priority 2018, dated 2025) are EC50 values, retold here.

The structures appear in SMILES notation.

The test deals with PB2 (Influenza A virus, UniProt P03428). In words: biochemical. The class given is binding.
Chain of PB2 (P03428 whole entry, looked up): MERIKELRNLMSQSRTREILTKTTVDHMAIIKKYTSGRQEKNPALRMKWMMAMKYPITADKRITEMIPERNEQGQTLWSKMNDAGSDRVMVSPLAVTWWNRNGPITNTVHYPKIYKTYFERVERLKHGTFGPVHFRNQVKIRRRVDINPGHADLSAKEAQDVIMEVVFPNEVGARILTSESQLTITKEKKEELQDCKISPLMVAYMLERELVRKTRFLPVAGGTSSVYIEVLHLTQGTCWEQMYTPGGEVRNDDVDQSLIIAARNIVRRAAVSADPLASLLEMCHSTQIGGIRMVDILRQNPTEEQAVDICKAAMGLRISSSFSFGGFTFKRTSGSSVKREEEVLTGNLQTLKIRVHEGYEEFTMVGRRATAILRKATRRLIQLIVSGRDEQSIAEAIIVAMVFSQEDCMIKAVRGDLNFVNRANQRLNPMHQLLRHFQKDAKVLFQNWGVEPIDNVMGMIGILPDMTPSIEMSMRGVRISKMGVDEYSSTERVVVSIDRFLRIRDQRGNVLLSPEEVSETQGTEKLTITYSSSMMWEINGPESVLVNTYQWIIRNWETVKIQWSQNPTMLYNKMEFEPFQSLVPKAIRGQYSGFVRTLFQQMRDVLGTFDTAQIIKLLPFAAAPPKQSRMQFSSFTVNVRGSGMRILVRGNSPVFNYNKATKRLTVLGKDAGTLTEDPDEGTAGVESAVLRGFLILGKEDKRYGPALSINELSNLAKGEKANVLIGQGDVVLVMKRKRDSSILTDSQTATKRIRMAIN
Take `O=C(NCC(=O)N1CCOCC1)OCc1ccnc(C(=O)N[C@H]2CCC[C@@H](Nc3nc(-c4c[nH]c5ncc(F)cc45)ncc3F)C2)c1` [Compound A121]: the EC50 (commonly the concentration giving half of the maximal effect) was 5 to 25 µM.

Consider `CCOCCOc1cccc(CCN(C)C(=O)N[C@@H]2CCC[C@H](Nc3nc(-c4c[nH]c5ncc(F)cc45)ncc3F)C2)c1` [Compound A186], for which the EC50 is > 100 µM.

For the compound `CCCCCOCCOCCN(Cc1ccccc1)C(=O)N[C@@H]1CCC[C@H](Nc2nc(-c3c[nH]c4ncc(F)cc34)ncc2F)C1` [Compound A179], the EC50 is > 100 µM.

For the compound `CCCCCCCCCCCNC(=O)N[C@@H]1CCC[C@H](Nc2nc(-c3c[nH]c4ncc(F)cc34)ncc2F)C1` [Compound A174], the EC50 is 50 to 100 µM.

Regarding `CCOCCOCCCCCNC(=O)N[C@@H]1CCC[C@H](Nc2nc(-c3c[nH]c4ncc(F)cc34)ncc2F)C1` [Compound A180], the EC50 is > 100 µM.

In the case of `O=C(N[C@@H]1CCC[C@H](Nc2nc(-c3c[nH]c4ncc(F)cc34)ncc2F)C1)c1cc(CCCO)ccn1` [Compound A39], the EC50 was < 5 µM.

Take `CCOCCOc1cccc(CCNC(=O)N[C@@H]2CCC[C@H](Nc3nc(-c4c[nH]c5ncc(F)cc45)ncc3F)C2)c1` [Compound A178]: the EC50 was > 100 µM.

Regarding `CCOCCOCCCCCN(C(=O)N[C@@H]1CCC[C@H](Nc2nc(-c3c[nH]c4ncc(Cl)cc34)ncc2Cl)C1)C(C)C` [Compound A249], the EC50 is > 100 µM.

For the compound `O=C(N[C@H]1CCC[C@@H](Nc2nc(-c3c[nH]c4ncc(F)cc34)ncc2F)C1)N1CCCC(CCCOCCOCc2ccccc2)C1` (stereo partly shown) [Compound A9], the EC50 was > 100 µM.

Take `Cc1ccccc1CNC(=O)OCc1ccnc(C(=O)N[C@H]2CCC[C@@H](Nc3nc(-c4c[nH]c5ncc(F)cc45)ncc3F)C2)c1` [Compound A123]: the EC50 is > 100 µM.

Consider `NCCOCCOCCOCCNC(=O)N[C@@H]1CCC[C@H](Nc2nc(-c3c[nH]c4ncc(F)cc34)ncc2F)C1` [Compound A170], for which the concentration for a half-maximal effect (EC50) was > 100 µM.

As to `CCOCCCCCOCCN(C)C(=O)N[C@H]1CCC[C@@H](Nc2nc(-c3c[nH]c4ncc(F)cc34)ncc2F)C1` [Compound A193], the EC50 is > 100 µM.

For `C[C@H](NC(=O)OCc1ccnc(C(=O)N[C@@H]2CCC[C@H](Nc3nc(-c4c[nH]c5ncc(F)cc45)ncc3F)C2)c1)C(=O)O` [Compound A134], the EC50 was < 5 µM.

As to `CCOCCOCc1cccc(CN(C)C(=O)N[C@@H]2CCC[C@H](Nc3nc(-c4c[nH]c5ncc(F)cc45)ncc3F)C2)c1` [Compound A204], the EC50 was > 100 µM.

For the compound `O=C(NCc1ccccn1)OCc1ccnc(C(=O)N[C@H]2CCC[C@@H](Nc3nc(-c4c[nH]c5ncc(F)cc45)ncc3F)C2)c1` [Compound A96], the EC50 is 5 to 25 µM.

In turn, `CCOCCOCc1cccc(-c2ccnc(C(=O)N[C@H]3CCC[C@@H](Nc4nc(-c5c[nH]c6ncc(F)cc56)ncc4F)C3)c2)c1` [Compound A90] had an EC50 of 50 to 100 µM.

Consider `CCOCCOCCOCCNC(=O)N(CCCCc1ccccc1)[C@H]1CCC[C@@H](Nc2nc(-c3c[nH]c4ncc(F)cc34)ncc2F)C1` [Compound A194], for which the concentration for a half-maximal effect (EC50) is > 100 µM.

As for `CCNC(=O)C(NC(=O)OCc1ccnc(C(=O)N[C@H]2CCC[C@@H](Nc3nc(-c4c[nH]c5ncc(F)cc45)ncc3F)C2)c1)C(C)(C)C` (stereo partly shown) [Compound A148], the EC50 is 50 to 100 µM.

Turning to `CCOCCOCCOCCN(Cc1ccccc1)C(=O)N[C@@H]1CCC[C@H](Nc2nc(-c3c[nH]c4ncc(F)cc34)ncc2F)C1` [Compound A176], the EC50 is > 100 µM.

Turning to `CCOc1ccc(CNC(=O)OCc2ccnc(C(=O)N[C@H]3CCC[C@@H](Nc4nc(-c5c[nH]c6ncc(F)cc56)ncc4F)C3)c2)cc1` [Compound A112], the EC50 is > 100 µM.

In the case of `O=C(N[C@H]1CCC[C@@H](Nc2nc(-c3c[nH]c4ncc(F)cc34)ncc2F)C1)N1CCCc2ccccc21` [Compound A1], the EC50 is > 100 µM.

On to `CCOCc1ccnc(C(=O)N[C@H]2CCC[C@@H](Nc3nc(-c4c[nH]c5ncc(F)cc45)ncc3F)C2)c1` [Compound A43], for which the EC50 was in the range of 5 to 25 µM.
